≈ marks a conversion by molar mass, not a printed value.
How the values were obtained:
Aphidius rhopalosiphi = test: LR50; higher = less toxic; conditions: not reported; mortality
Bibionidae = conditions: chronic/long-term; duration: 28 days
Daphnia magna = conditions: chronic/long-term; duration: 21 days; reproduction
Apis mellifera = conditions: acute; duration: 48 hours; oral; unspecified; mortality
Canidae = conditions: chronic; duration: 1 years; oral; Dog Other; organ weight
Pimephales promelas = conditions: chronic/long-term; duration: 33 days; growth
Oncorhynchus mykiss = conditions: acute; duration: 96 hours; mortality
Rattus norvegicus = conditions: for NOAEL: organ weight

With `CO/C=C(/C(=O)OC)c1ccccc1Oc1cc(Oc2ccccc2C#N)ncn1` [Azoxystrobin] the LR50 (Aphidius rhopalosiphi) was > 1000 g/ha, the NOEC (Bibionidae) was 0.8 mg/L and the NOEC (Daphnia magna) was 0.044 mg/L. For the same molecule, the LD50 (Apis mellifera) was > 25 µg/piece, the NOAEL (Canidae) was 25 mg/kg-day and the NOEC (Pimephales promelas) was 0.147 mg/L. For the same molecule, the LC50 (Oncorhynchus mykiss) was 0.47 µg/mL (≈ 1.17 µM), the LC50 (Colinus virginianus; acute, oral, diet, mortality) was > 5200 mg/kg-day and the LD50 (Colinus virginianus; acute, oral, mortality) was > 2000 mg/kg-day. The NOEC (Colinus virginianus; reproduction developmental) was 1200 mg/kg-day, the LD50 (Rattus norvegicus; acute, oral, mortality) was > 5000 mg/kg-day and the NOAEL (Rattus norvegicus; chronic, duration: 2 years, oral, diet) was 18 mg/kg-day. It also gave an NOEL (Rattus norvegicus; reproduction developmental, body weight) of 32 mg/kg-day, an NOAEL (Rattus norvegicus; subchronic, duration: 90 days, oral) of 21 mg/kg-day and an LC50 (Tagia sp.; acute, duration: 14 days, mortality) of 283 mg/kg. It also gave an NOEC (Tagia sp.; chronic/long-term, duration: 56 days) of 3 mg/kg.

Reference: EPA's ToxValDB 9.5 (doi:10.2903/j.efsa.2010.1542)
